Source: patent US4198405A, “Prostaglandine derivatives” (priority 1978, dated 1980)
Entries after “also recorded” stand apart in the source; their conditions may differ.

Assays:
rats (uterus) = assay: Hysterotrimus and cardiac activity by intravenous injection to rats
estrogen receptor = assay: Competitive receptor assay with 3H-estradiol in rabbit uterus; assay type: binding; settings: for binding to the estrogen receptor: in accordance with the method of Example 1
Method: Binding function of estradiol and the PGFE to each uterus of rabbit were measured by the competitive receptor assay. Estradiol labelled by tritium (^3 H) was incubated with uterus of rabbit to bind it and then, estradiol or the PGFE was added to the system to measure the amount of free ^3 H-estradiol which was replaced by the added estradiol or the PGFE.

[1] = system: ICR-JCL mice of the sixth day of pregnancy; assay: Test of abortion by subcutaneous injection, 4 days (Table 2); assay type: in vivo; settings: s.c. once a day
Method: (§1) The continuous administrations were applied to ICR-JCL mice of the sixth day of pregnancy (5 mice as one group) to examine the efficiency of the abortion obtained by the drugs of this invention in comparison with that of PGF2 α. After 0.2 ml of 5% ethanol-saline solution containing the […], the […] or PGF2 α was given to the mice once a day during 4 days by intravenous injection and subcutaneous injection at some dose, their breeding were continued to confirm the abortion of the group administrated with the drugs until the partus of the control group administrated with only ethanol saline solution.

ICR-JCL pregnant mice [2] = assay: Side-effect test: tachycardia, respirogram and electrocardiogram by biophysiograph; assay type: in vivo; settings: for tachycardia, respirogram and electrocardiogram compared with control: intravenous; for abnormal condition in tachycardia, respirogram and electrocardiogram: mice in pregnancy, before and after administration
Method: The tachycardia, respirogram and electrocardiogram of mice in pregnancy before and after the administration of PGF2 α, PGFE, PGFE-4AC and PGFE-3AC are tested by a biophysiograph 180-4(4ch) (manufactured by San-ei Sokuki K.K.).
(§2) Acute toxicity (LD50) and abnormal tachycardia, respirogram and electrocardiogram by a biophysiograph were tested.
Electrocardiogram was measured by a biophysiograph 180-4 (4 ch) (manufactured by San-ei Sokuki K.K.) for ICR-JCL pregnant mice (6th day) at 3 minutes after the administration of each sample.
In the test, 0.2 ml of 50% ethanol-saline solution was intravenously injected to the mice at a dose of 30γ per mouse. As the reference, the PGF2 α was also used as the sample (a dose of 15γ per mouse).
The results of the measurements are shown in FIGS. 2 to 5 wherein mV is given on ordinate and time (second) is given on abscissas and the chart speed was 250 mm/sec.

ICR-JCL pregnant mice [3] = assay: Abortion test, intravenous injection once a day during 4 days (Table 1); assay type: in vivo; settings: i.v. once a day
Method: The abortion was studied with ICR-JCL pregnant mice by the continuous administration of the drug during 4 days and the side-effect in the administration was also examined. After 0.2 ml of 50% ethanol-saline solution containing the PGFE at dose 10γ and 30γ/mouse or PGF2 α at dose 15γ/mouse(equimole of PGFE 30γ) was intravenously injected to the mice once a day during 4 days, their breedings were continued to confirm the abortion of the group administrated with the drugs until the partus of the control group administrated with only ethanol saline solution.

[4] = system: ICR-JCL mice of the sixth day of pregnancy; assay: Test of abortion by intravenous injection, 4 days (Table 3); assay type: in vivo; settings: i.v. once a day
Method: as §1

ICR-JCL pregnant mice [5] = assay: Efficiency of abortion, summary in words of the tests in pregnant mice; assay type: in vivo; settings: for abortion (in words): continuous administration during 4 days; for abortion effect in comparison with PGF2 α: suitable administrations and doses; for efficiency of abortion compared with PGF2 α: intravenous and subcutaneous, 4 days
Method: The efficiency of abortion of PGFE,PGFE-4AC and PGFE-3AC are tested as pharmacological effects in suitable administrations and doses by using ICR-JCL pregnant mice.
The continuous administrations were applied to ICR-JCL mice of the sixth day of pregnancy (5 mice as one group) to examine the efficiency of the abortion obtained by the drugs of this invention in comparison with that of PGF2 α. After 0.2 ml of 5% ethanol-saline solution containing the PGFE-3AC, the PGFE-4AC or PGF2 α was given to the mice once a day during 4 days by intravenous injection and subcutaneous injection at some dose, their breeding were continued to confirm the abortion of the group administrated with the drugs until the partus of the control group administrated with only ethanol saline solution.

ICR-JCL female mice = assay: Acute toxicity (LD50), intravenous injection; assay type: in vivo; settings: for survival of mice (acute toxicity) / abnormality observed: 400 mg/kg; for survival of mice (acute toxicity): 10 mice; for LD50 (in words): 7 days, Litchfield-Wilcoxon graph method
Method: Acute toxicities (LD50) of PGFE,PGFE-4AC and PGFE-3A are measured by intravenous injections at a dose of 400 mg/kg to ten of ICR-JCL female mice (4 weeks age).
as §2
In the measurement of LD50, 10ICR-JCL female mice (4 week age) were used as one group. 0.2 ml of 50% ethanol-saline solution containing the drug of this invention was intravenously injected to the mice at several doses during 7 days to obtain their value of LD50 by Litchfield-Wilcoxon graph method.

[6] = in accordance with the method of Example 1
[7] = 30γ/mouse, 3 minutes after administration

| SMILES | hysterotrimus (rats (uterus); [6]) | binding to the estrogen receptor (estrogen receptor) | Efficiency of abortion ([1]; 15 .tau./mouse) [%] | Result of parturition (5 mice in group) ([1]; 15 .tau./mouse) | Efficiency of abortion ([1]; 30 .tau./mouse) [%] | Result of parturition (5 mice in group) ([1]; 30 .tau./mouse) | abnormal condition in tachycardia, respirogram and electrocardiogram (ICR-JCL pregnant mice [2]) | Efficiency of abortion ([4]; 2.5 .tau./mouse) [%] | Result of parturition (5 mice in group) ([4]; 2.5 .tau./mouse) | Efficiency of abortion ([4]; 5.0 .tau./mouse) [%] | Result of parturition (5 mice in group) ([4]; 5.0 .tau./mouse) | survival of mice (acute toxicity) (ICR-JCL female mice) | abortion (in words) (ICR-JCL pregnant mice [5]; same dose as PGF2 α or less) | abortion effect in comparison with PGF2 α (ICR-JCL pregnant mice [5]) | abnormality observed (ICR-JCL female mice) | LD50 (in words) (ICR-JCL female mice) | tachycardia, respirogram and electrocardiogram compared with control (ICR-JCL pregnant mice [2]; [7]) | efficiency of abortion compared with PGF2 α (ICR-JCL pregnant mice [5]) | also measured |
| --- | --- | --- | --- | --- | --- | --- | --- | --- | --- | --- | --- | --- | --- | --- | --- | --- | --- | --- | --- |
| CCCCC[C@H](O)/C=C/[C@@H]1[C@@H](C/C=C\CCCC(=O)OC2CC[C@H]3[C@@H]4CCc5cc(O)ccc5[C@H]4CC[C@]23C)[C@@H](O)C[C@H]1O (stereo partly shown) [Example 2] | cause hysterotrimus | bonded to the estrogen receptor |  |  |  |  |  |  |  |  |  |  |  |  |  |  |  |  |  |
| CCCCC[C@H](O)/C=C/[C@H]1[C@H](O)CC(=O)[C@@H]1C/C=C\CCCC(=O)OCC(=O)OCC(=O)[C@H]1CC[C@H]2[C@@H]3CCC4=CC(=O)CC[C@]4(C)[C@H]3CC[C@]12C [PGE2 P] | cause hysterotrimus | bonded to the estrogen receptor |  |  |  |  |  |  |  |  |  |  |  |  |  |  |  |  |  |
| CCCCC[C@H](O)/C=C/[C@@H]1[C@@H](C/C=C\CCCC(=O)O)[C@@H](O)C[C@H]1O [PGF2 α, 9α,11α,15α-trihydroxy-5(cis)-13(trans)-prostadienoic acid, reference compound] |  |  | 0 | 5 | 20 | 4 | abnormal conditions are clearly observed | 0 | 5 | 0 | 5 |  |  |  |  |  |  |  | tachycardia, respirogram and electrocardiogram compared with control (ICR-JCL pregnant mice [2]; 15γ/mouse, 3 minutes after administration (FIG. 3)): abnormally different from those of the control; Effect of abortion (ICR-JCL pregnant mice [3]; 15 γ/mouse): 0%; Result of parturition (5 mice in group) (ICR-JCL pregnant mice [3]; 15 γ/mouse): 5; cardiac activity (rats (uterus); 5γ, intravenous, rats): cardiac stop was caused; hysterotrimus (rats (uterus); 5γ, intravenous, rats): gaved of the hysterotrimus; Efficiency of abortion ([4]; 15.0 .tau./mouse): 20%; Result of parturition (5 mice in group) ([4]; 15.0 .tau./mouse): 4; abortion (in words) (ICR-JCL pregnant mice [5]; 15α (4.24×10^-8 moles)/mouse): The abortion is incomplete |
| CCCCC[C@H](O)/C=C/[C@@H]1[C@@H](C/C=C\CCCC(=O)OCC(=O)O[C@H]2CC[C@H]3[C@@H]4CCc5cc(O)ccc5[C@H]4CC[C@]23C)[C@@H](O)C[C@H]1O [PGFE, estra-1,3,5(10)-triene-3-hydroxy-17-oxycarbonylmethyl-9α,11α,15α-trihydroxy-5(cis)-13(trans)prostadienoate] |  |  |  |  |  |  | any abnormal condition is not observed |  |  |  |  | All of mice (10) are survived | satisfied results are obtained | greatly superior effect |  |  |  |  | Effect of abortion (ICR-JCL pregnant mice [3]; 10 γ/mouse): 100%; Result of parturition (5 mice in group) (ICR-JCL pregnant mice [3]; 10 γ/mouse): 0; Effect of abortion (ICR-JCL pregnant mice [3]; 30 γ/mouse): 100%; Result of parturition (5 mice in group) (ICR-JCL pregnant mice [3]; 30 γ/mouse): 0; hysterotrimus (rats (uterus); 5 to 50γ (printed "5 L to 50γ"), intravenous, rats): gaved of the hysterotrimus; cardiac activity (rats (uterus); 50γ, intravenous, rats): the cardiac activity was in the normal condition; beginning of hysterotrimus in comparison with PGF2 α (rats (uterus); intravenous, rats): some delay in the beginning of hystrotrimus; side-effect (rats (uterus); up to 50γ, intravenous, rats): no side-effect was found; binding function to estrogen receptor (estrogen receptor; uterus of rabbit, displacement of 3H-estradiol, FIG. 1): has the binding function to estrogen receptor as the same with the estradiol itself |
| CCCCC[C@@H](/C=C/[C@@H]1[C@@H](C/C=C\CCCC(=O)OCC(=O)O[C@H]2CC[C@H]3[C@@H]4CCc5cc(O)ccc5[C@H]4CC[C@]23C)[C@@H](OC(C)=O)C[C@H]1OC(C)=O)OC(C)=O [PGFE-3AC, estra-1,3,5(10)-triene-3-hydroxy-17-oxycarbonylmethyl-9α,11α,15α-triacetoxy-5(cis)-13(trans)-prostadienoate] |  |  | 100 | 0 |  |  | any abnormal condition is not observed | 60 | 2 | 100 | 0 | all of the mice were survived | satisfied results are obtained | greatly superior effect | any abnormality was not observed | too high to be impossible to measure directly | substantially the same with those of the control | remarkably superior | survival of mice (acute toxicity) (ICR-JCL female mice; listed as PGFE-3A): All of mice (10) are survived; Efficiency of abortion ([4]; 1.0 .tau./mouse): 20%; Result of parturition (5 mice in group) ([4]; 1.0 .tau./mouse): 4 |
| CCCCC[C@@H](/C=C/[C@@H]1[C@@H](C/C=C\CCCC(=O)OCC(=O)O[C@H]2CC[C@H]3[C@@H]4CCc5cc(OC(C)=O)ccc5[C@H]4CC[C@]23C)[C@@H](OC(C)=O)C[C@H]1OC(C)=O)OC(C)=O [PGFE-4AC, estra-1,3,5(10)-triene-3-acetoxy-17-oxycarbonylmethyl-9α,11α,15α-triacetoxy-5(cis)-13(trans)prostadienoate] |  |  | 100 | 0 | 100 | 0 | any abnormal condition is not observed | 40 | 3 | 100 | 0 | all of the mice were survived; also recorded: All of mice (10) are survived | satisfied results are obtained | greatly superior effect | any abnormality was not observed | too high to be impossible to measure directly | substantially the same with those of the control | remarkably superior |  |
